This is an account of results in ChEMBL document CHEMBL1201862, “PubChem BioAssay data set” (2004).

Structures are written as SMILES.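 Method: 48-hour compound exposure of cells in 96-well plates, five concentrations, linear interpolation of endpoints. GI50 marks 50% less growth.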 Activity calls are given as the source filed them. Cut-off read from the data, not from the text of the source: active = GI50 up to about 1.1 µM and inactive = higher. Where only a bound is given, the exact number is not on record here.

Some test systems named below: HOP-92; OVCAR-3; DU-145; HCT-15; SR; SK-MEL-2; NCI-H460; SK-OV-3; EKVX; RXF 393; HCT-116; Malme-3M; MDA-MB-435; A549; MDA-MB-231; NCI-H522; SNB-19; M14; LOX IMVI; SK-MEL-5.
Assay in all cases: NCI tumour cell line growth inhibition, 48 h

Take `Cc1cn(C2CC(SCCO)C(CO)O2)c(=O)[nH]c1=O` (configuration not stated): the GI50 in the assay on HOP-92 was > 100 µM (inactive); in the assay with OVCAR-3, > 100 µM (inactive); in the assay with DU-145, > 100 µM (inactive); in the assay with HCT-15, greater than 100 µM; in the assay on SR it was > 100 µM (inactive); in the assay with SK-MEL-2 it was > 100 µM (inactive). The GI50 in the assay with NCI-H460, with SK-OV-3, in the assay on EKVX, in the assay on RXF 393, with HCT-116 and in the assay with Malme-3M was > 100 µM (inactive) in each case. The GI50 with MDA-MB-435, in the assay on A549, with MDA-MB-231, in the assay on NCI-H522, in the assay on SNB-19 and in the assay with M14 was > 100 µM (inactive) throughout.

For the compound `COC1O[C@@H]2CCN3C(=O)[C@@H](OC(=O)c4ccc([N+](=O)[O-])cc4)[C@H]1C23` (some centres not stated), the GI50 in the assay on HOP-92, in the assay with OVCAR-3, in the assay on LOX IMVI, with DU-145, in the assay on SR and with SK-MEL-5 was > 100 µM (inactive) throughout. Besides, the GI50 in the assay on NCI-H460, in the assay with SK-OV-3, in the assay with EKVX, with RXF 393, in the assay with HCT-116 and in the assay on MDA-MB-435 was > 100 µM (inactive) in each case. For the same compound, the GI50 in the assay on A549, in the assay on MDA-MB-231, in the assay on NCI-H522 and in the assay with M14 was > 100 µM (inactive) throughout.

Turning to `OCCCc1cc(O)c2c(c1)C(CO)C(c1ccc(O)c(O)c1)O2` (configuration not stated), the GI50 in the assay with HOP-92 is > 100 µM (inactive); in the assay with OVCAR-3, > 100 µM (inactive); with LOX IMVI, > 100 µM (inactive); with DU-145 it was > 100 µM (inactive); with HCT-15, greater than 100 µM; in the assay on SR it was > 100 µM (inactive). Further, the GI50 with SK-MEL-5, in the assay with SK-MEL-2, in the assay with NCI-H460, with SK-OV-3, in the assay on EKVX and in the assay on HCT-116 was > 100 µM (inactive) throughout. The GI50 in the assay on Malme-3M is > 100 µM (inactive); in the assay with MDA-MB-435, > 100 µM (inactive); with A549, > 100 µM (inactive); with MDA-MB-231, > 100 µM (inactive); with NCI-H522, 48.8 µM (inactive); with SNB-19, > 100 µM (inactive). For the same compound, in the assay on M14, the GI50 was 76.6 µM (inactive).

In the case of `Cc1ccc2c(c1)C(C(=O)N[C@@H]1C(=O)N3[C@@H]1SC(C)(C)[C@@H]3C(=O)O)OCCC2` (some centres not stated), the GI50 with HOP-92 is > 100 µM (inactive); in the assay with OVCAR-3 it was 87.1 µM (inactive); in the assay with LOX IMVI, > 100 µM (inactive); in the assay with DU-145, > 100 µM (inactive); in the assay on HCT-15, greater than 100 µM; in the assay with SR it was > 100 µM (inactive). Moreover, the GI50 in the assay with SK-MEL-5, in the assay with SK-MEL-2, in the assay on NCI-H460, with SK-OV-3, in the assay on EKVX and with RXF 393 was > 100 µM (inactive) in each case. Also, the GI50 in the assay with HCT-116, in the assay with MDA-MB-435, in the assay on A549, in the assay with MDA-MB-231, in the assay with NCI-H522 and with SNB-19 was > 100 µM (inactive) each time. Besides, in the assay with M14, the GI50 was > 100 µM (inactive).

On to `COc1cc2c3c(c1Oc1nnnn1-c1ccccc1)-c1c(ccc4c1OCO4)C[C@H]3N(C)CC2`, for which the GI50 with HOP-92 was 24.4 µM (inactive); in the assay on OVCAR-3, 37.4 µM (inactive); in the assay with LOX IMVI it was 29 µM (inactive); in the assay on DU-145 it was 71 µM (inactive); in the assay with HCT-15, 21.6 µM; in the assay on SR, 46.7 µM (inactive). The GI50 is 29.5 µM (inactive) with SK-MEL-5; 71.9 µM (inactive) in the assay with SK-MEL-2; 36.9 µM (inactive) in the assay on NCI-H460; 72.9 µM (inactive) with SK-OV-3; 32.4 µM (inactive) in the assay with EKVX; 31.7 µM (inactive) in the assay on HCT-116. Further, the GI50 in the assay with Malme-3M was 18.2 µM (inactive); in the assay on MDA-MB-435, 20.2 µM (inactive); with A549, 45.6 µM (inactive); with MDA-MB-231 it was 41.8 µM (inactive); in the assay on NCI-H522, 36.1 µM (inactive); in the assay with SNB-19 it was 65.5 µM (inactive). The GI50 in the assay with M14 was 18.7 µM (inactive).

As to `CC(C)CCCC(C)[C@H]1CC[C@H]2n3c(nnc3-c3ccccc3)CCC[C@]12C` (some centres not stated), the GI50 in the assay on HOP-92 is 15.1 µM (inactive); with OVCAR-3, 10.5 µM (inactive); in the assay on LOX IMVI, 1.86 µM (inactive); with DU-145, 16.2 µM (inactive); in the assay with HCT-15, 13.8 µM; in the assay with SR it was 4.06 µM (inactive). Moreover, the GI50 was 10.7 µM (inactive) with SK-MEL-5; 12.4 µM (inactive) in the assay on SK-MEL-2; 9.91 µM (inactive) with NCI-H460; 13.4 µM (inactive) in the assay on SK-OV-3; 11.5 µM (inactive) with RXF 393; 9.48 µM (inactive) in the assay on HCT-116. The GI50 was 23.2 µM (inactive) in the assay with Malme-3M; 10.7 µM (inactive) in the assay on MDA-MB-435; 9.86 µM (inactive) in the assay on A549; 15 µM (inactive) with MDA-MB-231; 11.8 µM (inactive) with SNB-19; 12.8 µM (inactive) in the assay with M14.

For `COc1ccc(S(=O)(=O)N2C(=O)CCC2C(=O)NC(N)=O)cc1` (configuration not stated), the GI50 with HOP-92 was > 100 µM (inactive); in the assay with OVCAR-3, > 100 µM (inactive); in the assay with LOX IMVI it was > 100 µM (inactive); with DU-145 it was > 100 µM (inactive); in the assay with HCT-15, greater than 100 µM; with SR, > 100 µM (inactive). Moreover, the GI50 with SK-MEL-5, in the assay on SK-MEL-2, with NCI-H460, with SK-OV-3, in the assay with EKVX and in the assay with HCT-116 was > 100 µM (inactive) in each case. Besides, the GI50 in the assay on Malme-3M, in the assay on MDA-MB-435, in the assay with A549, in the assay on MDA-MB-231, in the assay with NCI-H522 and in the assay on SNB-19 was > 100 µM (inactive) in each case. For the same compound, the GI50 in the assay on M14 is > 100 µM (inactive).

On to `COC1CC(OC2C(C)OC(OC3C(C)OC(OC4C(C)OC(O[C@H]5CC[C@@]6(C)C(=CC[C@]7(O)[C@@H]6C[C@@H](OC(C)=O)[C@@]6(C)[C@]7(O)CC[C@@]6(O)C(C)=O)C5)CC4OC)CC3OC)CC2OC)OC(C)C1O` (some centres not stated), for which the GI50 is > 25 µM (inactive) with HOP-92; > 25 µM (inactive) with OVCAR-3; > 25 µM (inactive) in the assay on LOX IMVI; > 25 µM (inactive) in the assay with DU-145; greater than 25 µM in the assay on HCT-15; > 25 µM (inactive) in the assay with SR. Moreover, the GI50 in the assay on SK-MEL-5, in the assay with SK-MEL-2, in the assay on SK-OV-3, in the assay on EKVX, in the assay on HCT-116 and in the assay with Malme-3M was > 25 µM (inactive) each time. The GI50 in the assay with MDA-MB-435, with A549, with MDA-MB-231, with NCI-H522, in the assay on SNB-19 and in the assay on M14 was > 25 µM (inactive) each time.

Turning to `CCOC(=O)/C=C/CCC(C)(C)COC(C)=O`, the GI50 with HOP-92 is > 10 µM (inactive); in the assay with OVCAR-3, > 10 µM (inactive); in the assay with LOX IMVI, > 10 µM (inactive); in the assay on DU-145 it was > 10 µM (inactive); in the assay on HCT-15, greater than 10 µM; with SR, > 10 µM (inactive). The GI50 in the assay with SK-MEL-5, in the assay with SK-MEL-2, in the assay on NCI-H460, with SK-OV-3, in the assay with EKVX and with RXF 393 was > 10 µM (inactive) each time. Besides, the GI50 with HCT-116, in the assay with MDA-MB-435, in the assay on A549, in the assay on MDA-MB-231, in the assay with NCI-H522 and in the assay on SNB-19 was > 10 µM (inactive) each time. In addition, in the assay on M14, the GI50 is > 10 µM (inactive).

Turning to `O=S(=O)(/N=S(/Nc1ccccc1)C(F)(F)Cl)c1ccccc1` (configuration not stated), the GI50 with HOP-92 was > 100 µM (inactive); in the assay on OVCAR-3, > 100 µM (inactive); with LOX IMVI, > 100 µM (inactive); in the assay on DU-145, > 100 µM (inactive); in the assay on HCT-15, greater than 100 µM; with SR it was > 100 µM (inactive). In addition, the GI50 with SK-MEL-5, in the assay with SK-MEL-2, in the assay on NCI-H460, in the assay on SK-OV-3, with EKVX and in the assay on RXF 393 was > 100 µM (inactive) in each case. Moreover, the GI50 with HCT-116, with Malme-3M, with MDA-MB-435, in the assay on A549, in the assay on MDA-MB-231 and in the assay on SNB-19 was > 100 µM (inactive) each time. The GI50 in the assay on M14 was > 100 µM (inactive).

Turning to `CCOC(=O)C1(N)CC1`, the GI50 is > 100 µM (inactive) in the assay with HOP-92; > 100 µM (inactive) in the assay with OVCAR-3; > 100 µM (inactive) with LOX IMVI; > 100 µM (inactive) with DU-145; greater than 100 µM with HCT-15; > 100 µM (inactive) with SR. Moreover, the GI50 with SK-MEL-5, in the assay with NCI-H460, in the assay on EKVX, with RXF 393, with HCT-116 and in the assay with Malme-3M was > 100 µM (inactive) each time. Besides, the GI50 in the assay with MDA-MB-435, with A549, in the assay on MDA-MB-231, with NCI-H522, with SNB-19 and with M14 was > 100 µM (inactive) throughout.
